Measured values reported in patent US11866408B2, “N,N-dimethyltryptamine and related psychedelics and uses thereof” (Terran Biosciences Inc., priority 2021, dated 2024).
Where a name gives a salt, the structure may show the parent alone.

Experiments:
[1] = Single oral dose pharmacokinetics study in rats (10 mg/kg PO; plasma levels of prodrug and of metabolite DMT or 5-MeO-DMT by LC-MS/MS); settings: for Mean Plasma Concentrations of metabolite DMT: prodrug 10 mg/Kg oral, male SD rats; for Mean Plasma Concentration (ng/mL) of metabolite DMT: analyte DMT after oral dosing of prodrug 10 mg/Kg
[2] = Single intravenous dose pharmacokinetics study in rats (1 mg/kg IV; plasma levels of prodrug and of DMT or 5-MeO-DMT by LC-MS/MS); settings: IV 1 mg/kg, plasma, analyte = dosed compound; for AUC(0-t) / AUC(0-inf) / clearance / MRT / Vd / half-life: male, Sprague-Dawley, rat, iv, 1 mg/kg; for clearance: CL/CL_F (mL/min/kg); for MRT: MRT (h); for Vd: Vdss (L/kg); for half-life: t1/2 (h)
[3] = male, Sprague-Dawley, rat, plasma, po, 10 mg/kg, AUC0-last (h*ng/mL), oral 10 mg/Kg, analyte = dosed prodrug, mean
[4] = male, Sprague-Dawley, rat, plasma, po, 10 mg/kg, Cmax (ng/mL), oral 10 mg/Kg, analyte = dosed prodrug, mean
[5] = oral 10 mg/Kg, analyte = dosed prodrug, median
[6] = PO 10 mg/kg, plasma, analyte = dosed compound
[7] = male, Sprague-Dawley, rat, plasma, po, 10 mg/kg, AUC0-t (nM.hr), PO 10 mg/kg, analyte = dosed compound
[8] = male, Sprague-Dawley, rat, plasma, po, 10 mg/kg, AUC0-t (ng.hr/mL), PO 10 mg/kg, analyte = dosed compound
[9] = male, Sprague-Dawley, rat, plasma, po, 10 mg/kg, C0/Cmax (nM), PO 10 mg/kg, analyte = dosed compound
[10] = male, Sprague-Dawley, rat, plasma, po, 10 mg/kg, C0/Cmax (ng/mL), PO 10 mg/kg, analyte = dosed compound, mean/median
[11] = oral 10 mg/Kg, analyte = dosed prodrug, mean

With `CC(C)COC(=O)n1cc(CCN(C)C)c2ccccc21` [DMT CP-5, isobutyl 3-[2-(dimethylamino)ethyl]indole-1-carboxylate] as the molecule, how does the AUC(0-t) [1, 3] read?
The AUC(0-t) was 8.63 ng·h/mL.

And the Cmax [1, 4]?
Its Cmax is 2.92 ng/mL.

What about the “tlast” value [1, 5] of the same molecule?
The value was 4.00 h.

What does the source list for `CCOC(=O)n1cc(CCN(C)C)c2ccccc21` [Compound 20, Ethyl 3-[2-(dimethylamino)ethyl]indole-1-carboxylate]?
Clast [1, 6]: 3.01 ng/mL; tlast [1, 6]: 1.00 h; AUC(0-t) [1, 7]: 0.0184 µM·h; AUC(0-t) [1, 8]: 4.78 ng·h/mL; Cmax [1, 9]: 44.3 nM; Cmax [1, 10]: 11.5 ng/mL; AUC % Back Extrapolation to C0 [2]: 17.5%; AUC % Extrapolation to infinity [2]: 1.073%; Clast [2]: 3.26 ng/mL; tlast [2]: 4.00 h; AUC(0-t) ([2]; AUC0-t (nM.hr)): 1.07 µM·h; AUC(0-t) ([2]; AUC0-t (ng.hr/mL)): 279 ng·h/mL; AUC(0-inf) ([2]; AUCinf (nM.hr)): 1.08 µM·h; AUC(0-inf) ([2]; AUCinf (ng.hr/mL)): 282 ng·h/mL; clearance [2]: 67.9 mL/min/kg; MRT [2]: 48.6 min; Vd [2]: 3.53 L/kg; half-life [2]: 36.8 min

Which AUC(0-t) [1, 3] does the source give for `COc1ccc2c(c1)c(CCN(C)C)cn2C(=O)OC(C)C` [5-MeO-DMT CP-2, isopropyl 3-[2-(dimethylamino)ethyl]-5-methoxy-indole-1-carboxylate] here?
The AUC(0-t) was 6.8 ng·h/mL.

And the Cmax [1, 4]?
The Cmax was 5.7 ng/mL.

What about the “tlast” value [1, 5] of the same molecule?
Its value is 2.50 h.

With `CC(=O)n1cc(CCN(C)C)c2ccccc21` [DMT AP-1, 1-[3-[2-(dimethylamino)ethyl]indol-1-yl]ethenone] as the molecule, how does the AUC(0-t) [1, 3] read?
The AUC(0-t) was 2.16 ng·h/mL.

And the Cmax [1, 4]?
Its Cmax is 3.53 ng/mL.

What about the “tlast” value [1, 5] of the same molecule?
Its value is 1.00 h.

What does the source list for `CC(C)OP(=O)(OC(C)C)n1cc(CCN(C)C)c2ccccc21` [Diisopropylphosphonate DMT Prodrug, 2-(1-diisopropoxyphosphorylindol-3-yl)-N,N-dimethyl-ethanamine]?
Bioavailability (%) Using AUC0-t ([1]; PO 10 mg/kg Plasma [Tlast = 4 h] vs IV 1 mg/kg): 16.1%; tlast ([1]; PO 10 mg/kg Plasma [Tlast = 4 h], analyte = dosed prodrug): 4.00 h; Clast [1, 6]: 28.2 ng/mL; tlast [1, 6]: 7.00 h; AUC(0-t) ([1]; male, Sprague-Dawley, rat, plasma, po, 10 mg/kg, AUC0-t (nM.hr), PO 10 mg/kg Plasma [Tlast = 4 h], analyte = dosed prodrug): 1.39 µM·h; AUC(0-t) [1, 7]: 1.83 µM·h; AUC(0-t) ([1]; male, Sprague-Dawley, rat, plasma, po, 10 mg/kg, AUC0-t (ng.hr/mL), PO 10 mg/kg Plasma [Tlast = 4 h], analyte = dosed prodrug): 489 ng·h/mL; AUC(0-t) [1, 8]: 644 ng·h/mL; Cmax ([1]; male, Sprague-Dawley, rat, plasma, po, 10 mg/kg, C0/Cmax (nM), PO 10 mg/kg Plasma [Tlast = 4 h], analyte = dosed prodrug): 554 nM; Cmax [1, 9]: 554 nM; Cmax ([1]; male, Sprague-Dawley, rat, plasma, po, 10 mg/kg, C0/Cmax (ng/mL), PO 10 mg/kg Plasma [Tlast = 4 h], analyte = dosed prodrug): 195 ng/mL; Cmax [1, 10]: 195 ng/mL; AUC % Back Extrapolation to C0 [2]: 36.7%; AUC % Extrapolation to infinity [2]: 3.21%; Clast [2]: 5.22 ng/mL; tlast [2]: 4.00 h; AUC(0-t) ([2]; AUC0-t (nM.hr)): 0.862 µM·h; AUC(0-t) ([2]; AUC0-t (ng.hr/mL)): 304 ng·h/mL; AUC(0-inf) ([2]; AUCinf (nM.hr)): 0.881 µM·h; AUC(0-inf) ([2]; AUCinf (ng.hr/mL)): 311 ng·h/mL; clearance [2]: 70.2 mL/min/kg; MRT [2]: 52.1 min; Vd [2]: 4.21 L/kg; half-life [2]: 51.9 min

With `CC(C)OC(=O)n1cc(CCN(C)C)c2ccccc21` [DMT CP-2, isopropyl 3-[2-(dimethylamino)ethyl]indole-1-carboxylate] as the molecule, how does the AUC(0-t) ([1]; male, Sprague-Dawley, rat, plasma, po, 10 mg/kg, AUC0-24 (h*ng/mL), oral 10 mg/Kg, analyte = dosed prodrug, mean) read?
The AUC(0-t) was 60.9 ng·h/mL.

What about the AUC(0-t) [1, 3] of the same molecule?
The AUC(0-t) was 39.4 ng·h/mL.

What about the Cmax [1, 4] of the same molecule?
Its Cmax is 17.4 ng/mL.

And the “tlast” value [1, 5]?
The value was 4.00 h.

Which AUC(0-t) [1, 3] does the source give for `CN(C)CCc1cn(C(=O)OC(C)(C)C)c2ccccc12` [DMT CP-3, tert-butyl 3-[2-(dimethylamino)ethyl]indole-1-carboxylate] here?
The AUC(0-t) was 13.8 ng·h/mL.

What about the Cmax [1, 4] of the same molecule?
Its Cmax is 11.1 ng/mL.

And the “tlast” value [1, 5]?
Its value is 4.00 h.

With `CN(C)CCc1cn(C(=O)N(C)C)c2ccccc12` [DMT N,N-dimethyl urea formate, 3-[2-(dimethylamino)ethyl]-N,N-dimethyl-indole-1-carboxamide] as the molecule, how does the “Mean Plasma Concentrations of metabolite DMT” value (shortened to “Mean Plasma Concentrations”) ([1]; time 0.50 h) read?
The value was “BLQ (BLQ: Below Lower Limit of Quantification (0.5 ng/mL))”.

And the “Mean Plasma Concentrations” value ([1]; time 1.00 h)?
Its value is “BLQ (BLQ: Below Lower Limit of Quantification (0.5 ng/mL))”.

And the “Mean Plasma Concentrations” value ([1]; time 2.00 h)?
Its value is “BLQ (BLQ: Below Lower Limit of Quantification (0.5 ng/mL))”.

And the “Mean Plasma Concentrations” value ([1]; time 4.00 h)?
Its value is “BLQ (BLQ: Below Lower Limit of Quantification (0.5 ng/mL))”.

What about the “Mean Plasma Concentrations” value ([1]; time 7.00 h) of the same molecule?
The value was “BLQ (BLQ: Below Lower Limit of Quantification (0.5 ng/mL))”.

What about the “Mean Plasma Concentrations” value ([1]; time 24.0 h) of the same molecule?
The value was “BLQ (BLQ: Below Lower Limit of Quantification (0.5 ng/mL))”.

For `COc1ccc2c(c1)c(CCN(C)C)cn2C(C)=O` [5-MeO-DMT AP-1, 1-[3-[2-(dimethylamino)ethyl]-5-methoxy-indol-1-yl]ethanone], which “AUC0-last” value [1, 11] is on record?
The value was 180 ng·h/mL.

What about the “Cmax” value [1, 11] of the same molecule?
Its value is 69 ng/mL.

What about the “T½” value [1, 11] of the same molecule?
The value was 74.4 min.

What about the “Tmax” value [1, 5] of the same molecule?
Its value is 30 min.

What about the “tlast” value [1, 5] of the same molecule?
The value was 7.00 h.

What does the source list for `CN(C)CCc1cn(C(=O)c2ccccc2)c2ccccc12` [DMT Benzamide]?
AUC(0-t) [1, 3]: 66.5 ng·h/mL; Cmax [1, 4]: 17.7 ng/mL; tlast [1, 5]: 7.00 h

What does the source list for `COc1ccc2c(c1)c(CCN(C)C)cn2C(=O)CCCC(=O)O` [5-MeO-DMT Non-Lipid Prodrug 6, 5-(3-(2-(dimethylamino)ethyl)-5-methoxy-1H-indol-1-yl)-5-oxopentanoic acid]?
AUC(0-t) [1, 3]: 362 ng·h/mL; Cmax [1, 4]: 106 ng/mL; tlast [1, 5]: 7.00 h

What does the source list for `COc1ccc2c(c1)c(CCN(C)C)cn2C(=O)OC(C)(C)C` [5-MeO-DMT CP-3, tert-butyl 3-[2-(dimethylamino)ethyl]-5-methoxy-indole-1-carboxylate]?
AUC(0-t) [1, 3]: 17.3 ng·h/mL; Cmax [1, 4]: 7.51 ng/mL; tlast [1, 5]: 4.00 h

What does the source list for `CCCOC(=O)n1cc(CCN(C)C)c2cc(OC)ccc21` [5-MeO-DMT CP-4, propyl 3-[2-(dimethylamino)ethyl]-5-methoxy-indole-1-carboxylate]?
AUC(0-t) [1, 3]: 6.45 ng·h/mL; Cmax [1, 4]: 4.85 ng/mL; tlast [1, 5]: 3.00 h

With `CN(C)CCc1cn(C(=O)CC(C)(C)C(=O)O)c2ccccc12` [DMT-3,3-dimethylsuccinate hydrochloride, 4-(3-(2-(dimethylamino)ethyl)-1H-indol-1-yl)-2,2-dimethyl-4-oxobutanoic acid HCl salt] as the molecule, how does the “Mean Plasma Concentrations” value ([1]; time 0.50 h) read?
The value was “BLQ (BLQ: Below Lower Limit of Quantification (0.5 ng/mL))”.

What about the “Mean Plasma Concentrations” value ([1]; time 1.00 h) of the same molecule?
The value was “BLQ (BLQ: Below Lower Limit of Quantification (0.5 ng/mL))”.

And the “Mean Plasma Concentrations” value ([1]; time 2.00 h)?
The value was “BLQ (BLQ: Below Lower Limit of Quantification (0.5 ng/mL))”.

What about the “Mean Plasma Concentrations” value ([1]; time 4.00 h) of the same molecule?
The value was “BLQ (BLQ: Below Lower Limit of Quantification (0.5 ng/mL))”.

And the “Mean Plasma Concentrations” value ([1]; time 7.00 h)?
The value was “BLQ (BLQ: Below Lower Limit of Quantification (0.5 ng/mL))”.

And the “Mean Plasma Concentrations” value ([1]; time 24.0 h)?
Its value is “BLQ (BLQ: Below Lower Limit of Quantification (0.5 ng/mL))”.

With `COc1ccc2c(c1)c(CCN(C)C)cn2C(=O)CCC(=O)O` [5-MeO-DMT Non-Lipid Prodrug 5, 4-(3-(2-(dimethylamino)ethyl)-5-methoxy-1H-indol-1-yl)-4-oxobutanoic acid] as the molecule, how does the AUC(0-t) [1, 3] read?
Its AUC(0-t) is 85.7 ng·h/mL.

And the Cmax [1, 4]?
Its Cmax is 23 ng/mL.

What about the “tlast” value [1, 5] of the same molecule?
The value was 7.00 h.

For `CN(C)CCc1cn(C(=O)N2CCC(N3CCCCC3)CC2)c2ccccc12` [DMT 4-Piperidinopiperidine urea formate, [1,4′-Bipiperidin]-1′-yl(3-(2-(dimethylamino)ethyl)-1H-indol-1-yl)methanone], which “Mean Plasma Concentration (ng/mL) of metabolite DMT” value (“Mean Plasma Concentration (ng/mL)” for short) ([1]; 0.50 h) is on record?
Its value is “BLQ (BLQ: Below Lower Limit of Quantification (0.5 ng/mL))”.

And the “Mean Plasma Concentration (ng/mL)” value ([1]; 1.00 h)?
Its value is “BLQ (BLQ: Below Lower Limit of Quantification (0.5 ng/mL))”.

What about the “Mean Plasma Concentration (ng/mL)” value ([1]; 2.00 h) of the same molecule?
Its value is “BLQ (BLQ: Below Lower Limit of Quantification (0.5 ng/mL))”.

What about the “Mean Plasma Concentration (ng/mL)” value ([1]; 4.00 h) of the same molecule?
The value was “BLQ (BLQ: Below Lower Limit of Quantification (0.5 ng/mL))”.

And the “Mean Plasma Concentration (ng/mL)” value ([1]; 7.00 h)?
The value was “BLQ (BLQ: Below Lower Limit of Quantification (0.5 ng/mL))”.

What about the “Mean Plasma Concentration (ng/mL)” value ([1]; 24.0 h) of the same molecule?
The value was “BLQ (BLQ: Below Lower Limit of Quantification (0.5 ng/mL))”.

For `CCCOC(=O)n1cc(CCN(C)C)c2ccccc21` [DMT CP-4, propyl 3-[2-(dimethylamino)ethyl]indole-1-carboxylate], which AUC(0-t) [1, 3] is on record?
The AUC(0-t) was 28.2 ng·h/mL.

What about the Cmax [1, 4] of the same molecule?
The Cmax was 14.3 ng/mL.

What about the “tlast” value [1, 5] of the same molecule?
The value was 4.50 h.
